We go through 16 compounds from patent US20210163489A1, “PYRAZOLOPYRIMIDINE DERIVATIVES AND THE COMPOSITIONS AND METHODS OF TREATMENT REGARDING THE SAME” (NysnoBio Ireland DAC, priority 2016, published 2021).

Several values for one entry are separate records, joined by “and”; a condition that tells them apart may be missing. Equal values may be shown once.

Data set [1] in a line: Metabolic stability in rat liver microsomes (RLM). It counts as in vitro ADME. To be noted: rat, liver microsomes, pH 7.4, 1 μM compound, 1.0 mg/mL microsome, NADPH; read-out: RLM t1/2. As to the method:
Compounds were also tested for metabolic stability in both rat liver microsomes (RLM) and human liver microsomes (HLM) and their half-life calculated (See Table 6). The assay was performed as follows. The total volume for each incubation was 250 μL. A 100 μM DMSO solution of compound (diluted from 10 mM stock solution) was spiked into 50 mM KH2PO4 (pH 7.4) buffer containing liver microsome at a concentration of 1.0 mg/mL. The reaction was initiated by the addition of 50 μL of 1 mM NADPH. The final concentration of each compound was 1 μM (1% DMSO). The positive controls, phenacetin for CYP1A2, diclofenac for CYP2C9, omeprazole for CYP2C19, dextromethorphan for CYP2D6 and midazolam for CYP3A4 were added to a separate tube with the final substrate concentrations of 1 μM (1% DMSO) for evaluating the enzyme activities in the liver microsomes. At 0, 15, 30 and 60 min, an aliquot of 15 μL reaction mixtures were removed and 200 μL of methanol (with internal standard of 25 ng/mL propranolol) was added to quench the reaction. The resulting mixture was centrifuged and supernatant was used for LC-MS/MS analysis.
The signals for each compound, or the metabolites for the probe substrates and the internal standard were integrated and the peak area ratios to internal standard were generated. Percent parent remaining at a specified timepoint was calculated based on the peak area ratios at time 0 (as 100%) for in vitro metabolic stability studies in liver microsome and hepatocyte. The observed rate constant (kobs) for the metabolism of substrates was calculated by plotting the natural log of percentage substrate remaining versus time of incubation with the slope being kobs. The half-life (T1/2) was calculated according to the following equation: […]

Data set [2] has as its target T1, Parkin ligase (Homo sapiens, UniProt O60260).
T1 construct: Enzyme: Parkin-His tagged 203 μM (10.5 mg/ml)
T1 sequence (O60260 1-465): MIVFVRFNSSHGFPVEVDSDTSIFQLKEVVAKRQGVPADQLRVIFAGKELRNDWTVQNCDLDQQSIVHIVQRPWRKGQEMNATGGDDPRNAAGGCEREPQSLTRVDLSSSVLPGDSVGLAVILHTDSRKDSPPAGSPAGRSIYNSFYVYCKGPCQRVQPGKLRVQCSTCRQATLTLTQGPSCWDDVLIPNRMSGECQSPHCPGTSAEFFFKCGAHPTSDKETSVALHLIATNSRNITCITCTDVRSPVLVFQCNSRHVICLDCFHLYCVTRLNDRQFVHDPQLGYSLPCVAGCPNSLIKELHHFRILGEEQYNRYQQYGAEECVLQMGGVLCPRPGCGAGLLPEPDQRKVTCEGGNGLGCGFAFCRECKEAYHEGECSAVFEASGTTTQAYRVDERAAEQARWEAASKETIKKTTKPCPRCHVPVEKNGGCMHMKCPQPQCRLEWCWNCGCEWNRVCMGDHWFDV
Kind of data set: Activity-based probe assay using an ubiquitin vinyl sulfone probe (TR-FRET). It counts as biochemical. The note with it: for EC50: activation of heat activated Parkin, HA-Ub-VS probe, read-out: Probe Assay EC50 (μM) [Example 2]. As to the method: An Ubiquitin vinyl sulfone probe can be used that irreversibly binds to the active site cysteine of Parkin ligase. Covalent attachment of the probe to the Parkin can be monitored by TR-FRET. Candidate activator compounds can be identified by increasing the activity of Parkin ligase due to an increase in TR-FRET signal. Screening for activating compounds can be distinguished from the controls as follows:
100% activation signal=Heat activated Parkin+100 nM control activator in DMSO. 0% activation signal=Heat activated Parkin+DMSO only. Parkin activators can be identified by an increase of the 0% activation signal TR-FRET signal.
• Assay Plate: White 384 well plate (Corning 3572) • Enzyme: Parkin-His tagged 203 μM (10.5 mg/ml) • Probe: Ubiquitin vinyl-sulfone (HA-Ub-VS Boston Biochem U-212) • DMSO: DMSO (Sigma cat # D4540-100ML) • Reaction Buffer: 50 mM HEPES (pH 8.5), 150 mM NaCl, 0.01% Tween 20, 0.1% BSA • Detection Buffer: 50 mM HEPES (pH 8.5), 150 mM NaCl, 0.01% Tween 20, 0.1% BSA, 800 mM KF • Detection Reagent A: 2.6 nM Anti-6HIS-Eu cryptate and 40 nM Anti-HA-XL665 in detection buffer • Eu cryptate: Anti-6HIS-Eu cryptate (CisBio 61HISKLA) • XL665: Anti-HA-XL665 (CisBio 610HAXLA) Enzyme Reaction (15 min Pre Incubation Parkin with Activator Only) • Parkin: 40 nM • HA-Ub-VS Probe: 70 nM • Activator/DMSO: 2× Activator/2% DMSO • Reaction time: 60 minutes • Temperature: 22° C. • Total volume: 10 μl reaction
• Take 10 μl of Enzyme Reaction above and add 10 μl detection Reagent A under the following conditions: • Reaction time: 60 minutes • Temperature: 22° C. • Total volume: 20 μl
Assay procedure (Using HP D-300 compound dispenser and Bravo for the operation):
1) Heat activate Parkin in reaction buffer (500 μl/1.5 ml tube: Eppendorf Thermomixer 5 minutes, 400 rpm at 58° C. and put on ice until needed). 2) Load assay plate wells with 4.8 μl 84.5 nM Parkin in reaction buffer by use of Bravo. 3) Deliver 0.2 μl 200× activator candidates in DMSO by use of HP D-300 compound dispenser. Highest 200× concentration=20 μm and then twofold dilutions. 4) Spin 1000 rpm, 2 minutes, at room temp. 5) Incubate plate for 15 minutes at room temp. 6) Add 5 μl 140 nM HA-Ub-VS Probe in reaction buffer by use of Bravo. 7) Spin 1000 rpm, 2 minutes, at room temp. 8) Incubate plate for 60 minutes at room temp. 9) Add 10 μl 2.6 nM Anti-6HIS-Eu cryptate and 40 nM Anti-HA-XL665 in detection buffer. 10) Spin 1000 rpm, 2 minutes, at room temp. 11) Incubate plate for 60 minutes at room temp. 12) Read plates on Perkin Elmer Envision instrument with the following parameters:
LANCE dual laser protocol loaded into the Envision® software
Top Mirror: LANCE/DELFIA Duel/Bias (Bar code 446) Emission Filter: APC 665 EM (Bar code 205) 2nd Emission Filter: Europium 615 EM (Bar code 203) Read […] (channel 1) and 615 nm (channel 2) wavelengths on Envision®
Data Analysis: The Data can be read in CSV files. There are two tables in those CSV files, which are the values of 655 nm (channel 1) and 615 nm (channel 2) wavelengths respectively. The data is converted to an HTRF Ratio=(Channel 1/Channel 2)*10,000
The average of all the 0 uM controls (DMSO only)=BKGD (Background—0% activation). Subtract BKGD from each HTRF Ratio value=HTRF-BKGD. The average of all the […] 100 nM control activator in DMSO controls=Max (100% activation). The following equation is then used to calculate % Activation for each well/candidate as follows: % Activation=(HTRF−BKGD/Max)*100.
Graphpad Prisim was used with Transform X values: X=Log(X) and nonlinear regression (dose-response-stimulation): Log(agonist) vs Response—variable slope (four parameters) with constrains set to Bottom=0 and Top=100.

Regarding `Cc1nc2c(-c3ccccc3)c(C)nn2c(S)c1Cc1ccncc1` [Compound AA, 2,5-dimethyl-3-phenyl-6-(4-pyridylmethyl)pyrazolo[1,5-a]pyrimidine-7-thiol], the half-life at 1 μM in data set [1] was determined as 112 min. Besides, the EC50 in data set [2] amounted to 10.9 µM.
The corresponding values for `Cc1nn2c(S)c(CC(C)C)cnc2c1-c1ccccc1` [Compound G3] are 22 min and 15 µM.
Turning to `Cc1nc2c(-c3ccccc3)c(C)nn2c(S)c1Cc1ccccc1` [Compound A, 6-benzyl-2,5-dimethyl-3-phenylpyrazolo[1,5-a]pyrimidine-7-thiol], the half-life at 1 μM in data set [1] was found to be 84.5 min. In data set [2], the “Parkin Ligase reaction with the Activity-based Ubiquitin vinyl sulfone probe” value is “increases”; the EC50 is 0.4 µM and 3.1 µM and 0.7 µM.
Regarding `Cc1cc(S)n2ncc(-c3ccc(F)cc3)c2n1` [Compound L, 3-(4-fluorophenyl)-5-methylpyrazolo[1,5-a]pyrimidine-7-thiol], the half-life at 1 μM in data set [1] stood at 68 min. In data set [2], the “Parkin Ligase reaction with the Activity-based Ubiquitin vinyl sulfone probe” value is given as “increases” and the EC50 was determined as 18 µM.
Turning to `Cc1nc2c(-c3ccccc3)cnn2c(O)c1Cc1ccccc1` [Compound U, 6-benzyl-5-methyl-3-phenyl-pyrazolo[1,5-a]pyrimidin-7-ol], in data set [1], the half-life at 1 μM is 29 min. In addition, the EC50 in data set [2] was 8.73 µM.
In the case of `Cc1cc(S)n2ncc(-c3cccc(N(C)C)c3)c2n1` [UU], the half-life at 1 μM in data set [1] came out at 4.2 min. In addition, the EC50 in data set [2] was determined as 10.7 µM.
With `Cc1nn2c(S)c3c(nc2c1-c1ccccc1)CN(C)CC3` [Compound C3], the half-life at 1 μM in data set [1] is 277 min. Also, the EC50 in data set [2] is 27 µM.
On to `Cc1ccc(-c2cnn3c(S)c4c(nc23)CN(C)CC4)cc1` [Compound S3], for which the half-life at 1 μM in data set [1] is more than 500 min. In addition, the EC50 in data set [2] stood at 6 µM.
The corresponding values for `Cc1nc2c(-c3ccccc3)cnn2c(S)c1Cc1ccccc1` [Compound CC, 6-benzyl-5-methyl-3-phenyl-pyrazolo[1,5-a]pyrimidin-7-thiol] are 55.9 min and 5.8 µM.
In the same order, the values of `COc1ccc(-c2cnn3c(S)cc(C)nc23)cc1` [SS] are 12.9 min and 8.9 µM.
Turning to `Cc1nc2c(-c3cccnc3)c(C)nn2c(S)c1Cc1ccccc1` [Compound D3], in data set [1], the half-life at 1 μM is 63 min. For the same compound, the concentration giving a half-maximal response (EC50) in data set [2] is 24 µM.
As for `Cc1cc(S)c2ncc(-c3ccc(F)cc3)n2n1` [Compound F3], the half-life at 1 μM in data set [1] came out at 67 min. In addition, the EC50 in data set [2] was found to be 3 µM.
With `Cc1nn2c(S)c(C)c(Cc3ccccc3)nc2c1-c1ccccc1` [ZZ], the half-life at 1 μM in data set [1] is 44 min. In data set [2], the EC50 worked out at 0.5 µM.
`Cc1nn2c(S)c(CCc3ccccc3)cnc2c1-c1ccccc1` [Compound E3]: the half-life at 1 μM in data set [1] stood at 3 min. Further, the EC50 in data set [2] came out at 4 µM.
On to `Cc1ccc(-c2cnn3c(S)cc(C)nc23)cc1` [TT], for which the half-life at 1 μM in data set [1] worked out at 8.1 min. Besides, the EC50 in data set [2] is 6.8 µM.
Consider `Cc1cc(C)c2c(n1)nn1c(S)cc(C)nc21` [Compound E], for which, in data set [1], the half-life at 1 μM came out at 55.9 min. Also, in data set [2], the EC50 was 4 µM.
